Where a SMILES comes first, the peptide text is derived from it. [ ]: non-standard residue; d: D form. The star is where a group is joined. ξ: configuration not given here. FITC = O=C1OC2(c3ccc(O)cc3Oc3cc(O)ccc32)c2ccc(NC(=S)*)cc21; Phe(4-NO2) = N[C@@H](Cc1ccc([N+](=O)[O-])cc1)C(=O)O; ξAla(4-thiazolyl) = NC(Cc1cscn1)C(=O)O; pS = N[C@@H](COP(=O)(O)O)C(=O)O; β3hS = N[C@@H](CO)CC(=O)O; Nva = CCC[C@H](N)C(=O)O; AEA = NCCOCC(=O)O; βAla = NCCC(=O)O
Molecular target: T1, 14-3-3γ (Homo sapiens, UniProt P61981)
T1 construct: made in house; host or cells: E. coli NiCo21 (DE3)
T1 sequence (P61981 1-247): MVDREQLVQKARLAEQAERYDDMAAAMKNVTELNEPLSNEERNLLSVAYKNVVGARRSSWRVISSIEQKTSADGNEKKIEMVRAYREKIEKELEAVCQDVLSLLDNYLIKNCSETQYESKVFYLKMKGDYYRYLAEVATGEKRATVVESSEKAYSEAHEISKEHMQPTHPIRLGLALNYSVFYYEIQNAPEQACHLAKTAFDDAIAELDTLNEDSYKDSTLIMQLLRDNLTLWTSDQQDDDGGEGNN
Test: Fluorescence anisotropy (FA) binary binding study: 14-3-3 titrated to fluorescein-labelled peptide
Conditions: for individual ΔΔG of removed residue / ΔΔG (to previous): FA; for individual ΔΔG of removed residue: ΔG relative to the previously truncated peptide; for fold change in binding affinity on truncation: FA KD relative to the previous (one amino acid longer) peptide
Experimental: 14-3-3γ protein expression (FP/ITC experiments)
(§1) A pPROEX HTb expression vector encoding the human 14-3-3 protein gamma (14-3-3γ) with an N-terminal his6-tag was transformed by heat shock into NiCo21 (DE3) competent cells. Single colonies were cultured in 50 mL LB medium (100 µg/mL ampicillin). After overnight incubation at 37 °C, cultures were transferred to 2 L TB media (100 µg/mL ampicillin, 1 mM MgCl2) and incubated at 37 °C until an OD600 nm of 0.8-1.2 was reached. Protein expression was then induced with 0.4 mM isopropyl-β-d-thiogalactoside (IPTG), and cultures were incubated overnight at 18 °C. Cells were harvested by centrifugation (8600 rpm, 20 minutes, 4 °C) and resuspended in lysis buffer (50 mM Hepes, pH 8.0, 300 mM NaCl, 12.5 mM imidazole, 5 mM MgCl2, 2 mM βME) containing cOmplete™ EDTA-free Protease Inhibitor Cocktail tablets (1 tablet/100 ml lysate) and benzonase (1 µl/100 ml). After lysis using a C3 Emulsiflex-C3 homogenizer (Avestin), the cell lysate was cleared by centrifugation (20000 rpm, 30 minutes, 4 °C) and purified using Ni2+-affinity chromatography (Ni-NTA superflow cartridges, Qiagen).
Typically two 5 mL columns (flow 5 mL/min) were used for a 2 L culture in which the lysate was loaded on the column washed with 10 CV wash buffer (50 mM Hepes, pH 8.0, 300 mM NaCl, 25 mM imidazole, 2 mM βME) and eluted in several fractions (2-4 CV) of elution buffer (50 mM Hepes, pH 8.0, 300 mM NaCl, 250 mM imidazole, 2 mM βME). Fractions containing the 14-3-3 protein were combined and dialyzed into 25 mM HEPES pH 8.0, 100 mM NaCl, 10 mM MgCl2, 500 µM TCEP. Finally, the protein was concentrated to ∼60 mg/mL, analyzed Q-Tof LC/MS, and aliquots were flash-frozen for storage at […]
as §1, with “sigma truncated after T231 (14-3-3σΔc) and” for “gamma (14-3-3γ)”, “tablet/ 100” for “tablet/100”, “µl/ 100” for “µl/100”, “ml).” for “ml). After lysis using a C3 Emulsiflex-C3 homogenizer (Avestin), the cell lysate was cleared by centrifugation (20000 rpm, 30 minutes, 4 °C) and purified using Ni2+-affinity chromatography (Ni-NTA superflow cartridges, Qiagen).”
After lysis using a C3 Emulsiflex-C3 homogenizer (Avestin), the cell lysate was cleared by centrifugation (20000 rpm, 30 minutes, 4 °C) and purified using Ni2+-affinity chromatography (Ni-NTA superflow cartridges, Qiagen). Typically two 5 mL columns were used for a 2 L culture in which the lysate was loaded on the column washed with 10 CV wash buffer (50 mM Hepes, pH 8.0, 300 mM NaCl, 25 mM imidazole, 2 mM βME) and eluted with several fractions (2-4 CV) of elution buffer (50 mM Hepes, pH 8.0, 300 mM NaCl, 250 mM imidazole, 2 mM βME). Fractions containing the 14-3-3 protein were combined and dialyzed into 25 mM HEPES pH 8.0, 200 mM NaCl, 10 mM MgCl2, 2 mM βME. In addition, 1 mg TEV was added for each 100 mg purified protein to remove the purification tag. The cleaved sample was then again loaded on a 10 mL Ni-NTA column to separate the cleaved product from the expression tag and residual uncleaved protein. The flowthrough was loaded on a Superdex 75 pg 16/60 size exclusion column (GE Life Sciences) using 25 mM HEPES, 100 mM NaCl, 10 mM MgCl2, 500 μM TCEP (adjusted to pH=8.0) as running buffer. Fractions containing the 14-3-3 protein were pooled and concentrated to ∼60 mg/mL, analyzed Q-Tof LC/MS, and aliquots were flash-frozen for storage at −80 […]
The peptides 1 and 2a-d were synthesized on 50 µmol scale on a Rink amide MBHA resin […]

[1] = Table S2, FA KD of peptide divided by KD of previous (one amino acid longer) peptide, mean of n = 3
[2] = Table S2, KD / KD of previous (one amino acid longer) peptide, replicate 1
[3] = Table S2, KD / KD of previous (one amino acid longer) peptide, replicate 2
[4] = Table S2, KD / KD of previous (one amino acid longer) peptide, replicate 3
[5] = Table S2, calculated from FA KD, mean of n = 3
[6] = Table S2, from FA KD, replicate 1
[7] = Table S2, from FA KD, replicate 2
[8] = Table S2, from FA KD, replicate 3
[9] = Table S2, ΔG minus ΔG of previous peptide, replicate 1
[10] = Table S2, ΔG minus ΔG of previous peptide, replicate 2
[11] = Table S2, ΔG minus ΔG of previous peptide, replicate 3
[12] = Table S2, ΔG of peptide minus ΔG of previous (one amino acid longer) peptide, mean of n = 3
[13] = Table S3, FA KD of peptide divided by KD of previous (one amino acid longer) peptide, mean of n = 3
[14] = Table S3, KD / KD of previous peptide, replicate 1
[15] = Table S3, KD / KD of previous peptide, replicate 2
[16] = Table S3, KD / KD of previous peptide, replicate 3
[17] = Table S3, calculated from FA KD, mean of n = 3
[18] = Table S3, from FA KD, replicate 1
[19] = Table S3, from FA KD, replicate 2
[20] = Table S3, from FA KD, replicate 3
[21] = Table S3, ΔG minus ΔG of previous peptide, replicate 1
[22] = Table S3, ΔG minus ΔG of previous peptide, replicate 2
[23] = Table S3, ΔG minus ΔG of previous peptide, replicate 3
[24] = Table S3, ΔG of peptide minus ΔG of previous (one amino acid longer) peptide, mean of n = 3

SMILES	individual ΔΔG of removed residue	Fold change to previous [1]	Fold change to previous [2]	Fold change to previous [3]	Fold change to previous [4]	ΔG [5]	ΔG [6]	ΔG [7]	Fold change to previous [13]	Fold change to previous [14]	Fold change to previous [15]	Fold change to previous [16]	ΔG [17]	ΔG [18]	ΔG [19]	ΔG [20]	ΔΔG (to previous) [21]	ΔΔG (to previous) [22]	ΔΔG (to previous) [23]	ΔΔG (to previous) [24]	other results
CCC[C@H](N)C(=O)N[C@@H](Cc1ccc([N+](=O)[O-])cc1)C(=O)NC(Cc1cscn1)C(=O)N[C@@H](COP(=O)(O)O)C(=O)N[C@@H](Cc1ccc([N+](=O)[O-])cc1)C(=O)N[C@@H](CO)CC(=O)NCCC(=O)N[C@@H](Cc1ccc([N+](=O)[O-])cc1)C(=O)N[C@@H](CCCCN)C(=O)N[C@@H](C)C(=O)N[C@@H](CCCCNC(=S)Nc1ccc2c(c1)C(=O)OC21c2ccc(O)cc2Oc2cc(O)ccc21)C(N)=O (stereo partly drawn) [2a] (H-[Nva][Phe(4-NO2)][ξAla(4-thiazolyl)][pS][Phe(4-NO2)][β3hS][βAla][Phe(4-NO2)]KAK(FITC)-NH2)	only minor energy contributions	1,98	1,72	2,56	1,66	-10,13 kcal/mol	-10,29 kcal/mol	-10,00 kcal/mol	–	–	–	–	–	–	–	–	–	–	–	–	ΔG [8]: -10,11 kcal/mol; ΔΔG (to previous) [9]: 0,32 kcal/mol; ΔΔG (to previous) [10]: 0,56 kcal/mol; ΔΔG (to previous) [11]: 0,30 kcal/mol; ΔΔG (to previous) [12]: 0,39 kcal/mol
C[C@H](NC(=O)[C@H](CCCCN)NC(=O)[C@H](Cc1ccc([N+](=O)[O-])cc1)NC(=O)CCNC(=O)C[C@H](CO)NC(=O)[C@H](Cc1ccc([N+](=O)[O-])cc1)NC(=O)[C@H](COP(=O)(O)O)NC(=O)C(Cc1cscn1)NC(=O)[C@@H](N)Cc1ccc([N+](=O)[O-])cc1)C(=O)N[C@@H](CCCCNC(=S)Nc1ccc2c(c1)C(=O)OC21c2ccc(O)cc2Oc2cc(O)ccc21)C(N)=O (stereo partly drawn) [2b] (H-[Phe(4-NO2)][ξAla(4-thiazolyl)][pS][Phe(4-NO2)][β3hS][βAla][Phe(4-NO2)]KAK(FITC)-NH2)	only minor energy contributions	2,86	3,64	2,32	2,61	-9,52 kcal/mol	-9,53 kcal/mol	-9,50 kcal/mol	–	–	–	–	–	–	–	–	–	–	–	–	ΔG [8]: -9,54 kcal/mol; ΔΔG (to previous) [9]: 0,76 kcal/mol; ΔΔG (to previous) [10]: 0,50 kcal/mol; ΔΔG (to previous) [11]: 0,57 kcal/mol; ΔΔG (to previous) [12]: 0,61 kcal/mol
CCC[C@H](NC(=O)[C@@H](CCCCN)NC(=O)COCCNC(=S)Nc1ccc2c(c1)C(=O)OC21c2ccc(O)cc2Oc2cc(O)ccc21)C(=O)N[C@@H](Cc1ccc([N+](=O)[O-])cc1)C(=O)NC(Cc1cscn1)C(=O)N[C@@H](COP(=O)(O)O)C(=O)N[C@@H](Cc1ccc([N+](=O)[O-])cc1)C(=O)N[C@@H](CO)CC(=O)NCCC(=O)N[C@@H](Cc1ccc([N+](=O)[O-])cc1)C(N)=O (stereo partly drawn) [2e] ({FITC-AEA}-[dK][Nva][Phe(4-NO2)][ξAla(4-thiazolyl)][pS][Phe(4-NO2)][β3hS][βAla][Phe(4-NO2)]-NH2)	–	–	–	–	–	–	–	–	5,55	5,54	7,13	3,98	-9,53 kcal/mol	-9,60 kcal/mol	-9,39 kcal/mol	-9,59 kcal/mol	1,01 kcal/mol	1,16 kcal/mol	0,82 kcal/mol	1,00 kcal/mol	fold change in binding affinity on truncation: five-fold reduction
CCC[C@H](NC(=O)[C@@H](CCCCN)NC(=O)COCCNC(=S)Nc1ccc2c(c1)C(=O)OC21c2ccc(O)cc2Oc2cc(O)ccc21)C(=O)N[C@@H](Cc1ccc([N+](=O)[O-])cc1)C(=O)NC(Cc1cscn1)C(=O)N[C@@H](COP(=O)(O)O)C(=O)N[C@@H](Cc1ccc([N+](=O)[O-])cc1)C(=O)N[C@@H](CO)CC(=O)NCCC(N)=O (stereo partly drawn) [2f] ({FITC-AEA}-[dK][Nva][Phe(4-NO2)][ξAla(4-thiazolyl)][pS][Phe(4-NO2)][β3hS][βAla]-NH2)	1.5 kcal/mol	–	–	–	–	–	–	–	12,39	12,69	11,53	12,93	-8,04 kcal/mol	-8,10 kcal/mol	-7,95 kcal/mol	-8,07 kcal/mol	1,50 kcal/mol	1,45 kcal/mol	1,52 kcal/mol	1,49 kcal/mol	fold change in binding affinity on truncation: 12 fold
CCC[C@H](NC(=O)[C@@H](CCCCN)NC(=O)COCCNC(=S)Nc1ccc2c(c1)C(=O)OC21c2ccc(O)cc2Oc2cc(O)ccc21)C(=O)N[C@@H](Cc1ccc([N+](=O)[O-])cc1)C(=O)NC(Cc1cscn1)C(=O)N[C@@H](COP(=O)(O)O)C(=O)N[C@@H](Cc1ccc([N+](=O)[O-])cc1)C(=O)N[C@@H](CO)CC(N)=O (stereo partly drawn) [2g] ({FITC-AEA}-[dK][Nva][Phe(4-NO2)][ξAla(4-thiazolyl)][pS][Phe(4-NO2)][β3hS]-NH2)	0.4 kcal/mol	–	–	–	–	–	–	–	1,85	1,92	1,84	1,79	-7,67 kcal/mol	-7,71 kcal/mol	-7,59 kcal/mol	-7,73 kcal/mol	0,39 kcal/mol	0,36 kcal/mol	0,34 kcal/mol	0,36 kcal/mol	–
